# Source: patent US20030100565A1, “Method for the treatment or prevention of atopic dermatitis” (Boehringer Ingelheim International GmbH, priority 2001, published 2003)
# Legend:
# SP-induced scratching [1] = assay: Effect on SP-induced scratching in guinea pigs; type: in vivo, Hartley guinea pigs; settings: for effect on SP-induced scratching compared with Compounds Ia and Id: dose not stated
# Description: Assay: Effect of NK1 Receptor Antagonist Ia, on SP-Induced Scratching in Guinea Pigs
# Male Hartley guinea pigs (Japan SLC, Ltd., Shizuoka, Japan) of 4-5 weeks old weighing 275-395 g were used in the experiment. The guinea pigs were fasted more than 12 hours prior to the initiation of the experiment with free access to water. 6-8 guinea pigs were used for each group.
# Prior to the recording of behaviour, the guinea pigs (one animal per cage) were kept in a cage for observation for at least 1 hour for acclimation. Compound Ia was dosed at 1 hour prior to the administration of substance P. […] SP (150 μg/body) was injected intradermally in volume of 20 μL into the rostral back (around interscapular level). Immediately after the administration of SP, the behaviour of the guinea pigs were recorded using VHS video camera for 1 hour with any persons kept out the observation room (sound proof condition). Playing back of video was served for counting the number of scratching behaviour.
# The total scratching counts during 60 min of observation were analysed by one-way ANOVA and Dunnett's multiple comparison test between vehicle treatment and drug treatments; p<0.05 value was considered as significant. Scratching counts were expressed as the mean+S.E.
# SP-induced scratching [2] = assay: Effect on SP-induced scratching in mice; type: in vivo, ddY mice; settings: for scratching behavior count induced by SP: 1 h before intradermal SP, FIG. 1, control 50.5±12.1, mean±S.E.; for scratching behaviour count induced by SP: another experiment; for effect on SP-induced scratching compared with Compounds Ia and Ib: mice, dose not stated
# Description: Assay: Effect of NK1 Receptor Antagonist Ia, on SP-Induced Scratching in Mice Male ddY mice (Japan SLC, Ltd., Shizuoka, Japan) of 8-9 weeks of ages weighing 34-43 g, were used in the experiment. Mice were fasted 4 hours prior to the initiation of the experiment with free access to water. Epinastine and NK1 receptor antagonist of formulae Ia, Ib, Ic and Id (Compounds Ia to Id) were provided by Boehringer Ingelheim Pharma K.G. (Germany). SP (lot. No. 80K5 104) was supplied by Sigma Co., Ltd. (USA) and dissolved in physiological saline. Before recording of behavior, the mice (two animals per one cage) were put into an acryl cage for at least 5 hours for acclimation. […] Playing back of video served for counting scratching behavior. […] Data were analyzed by One-way ANOVA and post hoc Tukey test; p<0.05 value was considered. Data presented as the mean±S.E.
# SP-induced scratching [3] = settings: mice; reported by Inagaki et al., Eur J Pharmacol 2000; cited from earlier work
compound,measurement,setting,value
CN(CCc1cc(C(F)(F)F)cc(C(F)(F)F)c1)C(=O)[C@H](c1ccccc1)N1CCN(CC2CC2)CC1 [Compound Ia],inhibition of scratching behaviour induced by SP,"SP-induced scratching [1]; guinea pigs, higher doses of 0.1 mg/kg p.o., FIG. 5.1",significant inhibition
same,inhibition of scratching behaviour induced by SP,"SP-induced scratching [1]; guinea pigs, lower doses of 0.03 mg/kg p.o., FIG. 5.2",tendency to inhibit
same,"inhibition of scratching behaviour induced by SP, dose dependency","SP-induced scratching [1]; guinea pigs, p.o., 1 h before SP, FIG. 5",inhibited the scratching behaviour induced by SP dose dependently
same,scratching behavior count induced by SP,SP-induced scratching [2]; 30 mg/kg p.o.,21.1±6.1 beats/60 min
same,scratching behaviour count induced by SP,"SP-induced scratching [2]; 30 mg/kg p.o., FIG. 2a, control 59.0±6.0/60 min",29.9±6.6 beats/60 min
same,dose dependency of effect on SP-induced scratching behavior,"SP-induced scratching [2]; 10 and 30 mg/kg p.o., FIG. 3, vehicle 51.0±12.9 beats/60 min","inhibited the scratching induced by SP, and the effect was dose dependent"
same,overall effect on scratching behaviour (conclusion),"SP-induced scratching [2]; ddY mice, effect similar to epinastine",apparent inhibitory effect
"(S)-N-[2-(3,5-Bis-trifluormethyl-phenyl)-ethyl]-2-{4-[cyclopropylmethyl-(3-hydroxy-propyl) -amino]-piperidin-1-yl}-N-methyl-2-phenyl-acetamid [Compound Ib]",effect on SP-induced scratching compared with Compounds Ia and Id,SP-induced scratching [1]; guinea pigs,Comparable results
same,inhibition of scratching behaviour induced by substance P,"SP-induced scratching [2]; 30 mg/kg p.o., FIG. 4",inhibited
"NC1=NCC2c3ccccc3Cc3ccccc3N12 (stereo not shown) [epinastine, reference compound]",scratching behavior count induced by SP,SP-induced scratching [2]; 10 mg/kg p.o.,20.0±8.4 beats/60 min
same,scratching behaviour count induced by SP,"SP-induced scratching [2]; 10 mg/kg p.o., FIG. 2b, control 51.6±7.8/60 min",33.7±4.0 beats/60 min
same,effect on SP-induced scratching,SP-induced scratching [3],significant effect
"CN(CCc1cc(C(F)(F)F)cc(C(F)(F)F)c1)C(=O)[C@H](c1ccccc1)N1CCC(NC(CO)CO)CC1 [Compound Id, (S)-N-[2-(3,5-Bis-trifluormethyl-phenyl)-ethyl]-2-[4-(2-hydroxy-1-hydroxymethyl-ethylamino)-piperidin-1-yl]-N-methyl-2-phenylacetamid]",inhibition of scratching behaviour induced by substance P,"SP-induced scratching [1]; guinea pigs, 0.3, 1.0 and 3.0 mg/kg p.o., FIG. 6",inhibited
same,effect on SP-induced scratching compared with Compounds Ia and Ib,SP-induced scratching [2],Comparable results
"CN(CCc1cc(C(F)(F)F)cc(C(F)(F)F)c1)C(=O)[C@H](c1ccccc1)N1CCC(N(C)CCCO)CC1 [Ic, (S)-N-[2-(3,5-Bis-trifluormethyl-phenyl)-ethyl]-2-{4-[(3-hydroxy-propyl)-methyl-amino]-piperidin-1-yl}-N-methyl-2-phenyl-acetamide]",effect on SP-induced scratching compared with Compounds Ia and Id,SP-induced scratching [1]; guinea pigs,Comparable results
same,effect on SP-induced scratching compared with Compounds Ia and Ib,SP-induced scratching [2],Comparable results
